The text below walks through data of patent publication US7538221B2, “Polymorphs of racemic, dextrorotatory, and levorotatory enantioners of 1-cyclopropyl-6-fluoro-8-methoxy-7-(4-amino-3,3-dimethylpiperidin-1-yl)-1,4-dihydro-4-oxo-quinoline-3-carboxylic acid hydrochloride and mesylate salts” (The Company of Wockhardt Limited, priority 2003, dated 2009).

The nature of data set [1]: Percent relative humidity stability study. Type of data set: physicochemical.
Data set [2] is described as follows: Aqueous solubility of salt polymorphs. The conditions noted are these: water, 25 °C, Aqueous Solubility at 25-30° C. (mg/ml).
Where [3] appears, read: solid kept for 20 days in 78% relative humidity.

Like-named read-outs stand apart in the source and are kept apart here.

Turning to `COc1c(N2CCC(N)C(C)(C)C2)c(F)cc2c(=O)c(C(=O)O)cn(C3CC3)c12.Cl` (racemic) [(±) A-1, (±)-1-cyclopropyl-6-fluoro-8-methoxy-7-(4-amino-3,3-dimethylpiperidin-1-yl)-1,4-dihydro-4-oxo-quinoline-3-carboxylic acid hydrochloride], the “polymorph change on storage (Powder X-ray Diffraction spectrum and aqueous solubility change)” value in data set [1] (setting [3]) was “changed to polymorph A-2”.

Consider `COc1c(N2CCC(N)C(C)(C)C2)c(F)cc2c(=O)c(C(=O)O)cn(C3CC3)c12.Cl` (racemic) [(±) A-3, (±)-1-cyclopropyl-6-fluoro-8-methoxy-7-(4-amino-3,3-dimethylpiperidin-1-yl)-1,4-dihydro-4-oxo-quinoline-3-carboxylic acid hydrochloride], for which the “polymorph change on storage (Powder X-ray Diffraction spectrum and aqueous solubility change)” value in data set [1] (setting [3]) was “changed to polymorph A-2”.

With `COc1c(N2CCC(N)C(C)(C)C2)c(F)cc2c(=O)c(C(=O)O)cn(C3CC3)c12.CS(=O)(=O)O` (racemic) [(±) B-1, (±)-1-cyclopropyl-6-fluoro-8-methoxy-7-(4-amino-3,3-dimethylpiperidin-1-yl)-1,4-dihydro-4-oxo-quinoline-3-carboxylic acid mesylate], in data set [2], the solubility was in the range of 80 to 200 mg/mL.

On to `COc1c(N2CC[C@@H](N)C(C)(C)C2)c(F)cc2c(=O)c(C(=O)O)cn(C3CC3)c12.Cl` [(+) A-1, R-(+)-1-cyclopropyl-6-fluoro-8-methoxy-7-(4-amino-3,3-dimethylpiperidin-1-yl)-1,4-dihydro-4-oxo-quinoline-3-carboxylic acid hydrochloride], for which the “polymorph change on storage (Powder X-ray Diffraction spectrum and aqueous solubility change)” value in data set [1] (setting [3]) was “changed to polymorph A-2”.

As to `COc1c(N2CC[C@@H](N)C(C)(C)C2)c(F)cc2c(=O)c(C(=O)O)cn(C3CC3)c12.Cl` [(+) A-2, R-(+)-1-cyclopropyl-6-fluoro-8-methoxy-7-(4-amino-3,3-dimethylpiperidin-1-yl)-1,4-dihydro-4-oxo-quinoline-3-carboxylic acid hydrochloride], in data set [1] (from percent relative humidity stability study and aqueous solubility data), the “thermodynamic stability of polymorph” value was “thermodynamically stable”.

For `COc1c(N2CC[C@@H](N)C(C)(C)C2)c(F)cc2c(=O)c(C(=O)O)cn(C3CC3)c12.Cl` [(+) A-3, R-(+)-1-cyclopropyl-6-fluoro-8-methoxy-7-(4-amino-3,3-dimethylpiperidin-1-yl)-1,4-dihydro-4-oxo-quinoline-3-carboxylic acid hydrochloride], the “polymorph change on storage (Powder X-ray Diffraction spectrum and aqueous solubility change)” value in data set [1] (setting [3]) was “changed to polymorph A-2”.

Turning to `COc1c(N2CC[C@@H](N)C(C)(C)C2)c(F)cc2c(=O)c(C(=O)O)cn(C3CC3)c12.CS(=O)(=O)O` [(+) B-1, R-(+)-1-cyclopropyl-6-fluoro-8-methoxy-7-(4-amino-3,3-dimethylpiperidin-1-yl)-1,4-dihydro-4-oxo-quinoline-3-carboxylic acid mesylate], the solubility in data set [2] lay in the range of 80 to 200 mg/mL.

Consider `COc1c(N2CC[C@H](N)C(C)(C)C2)c(F)cc2c(=O)c(C(=O)O)cn(C3CC3)c12.Cl` [(−) A-1, S-(−)-1-cyclopropyl-6-fluoro-8-methoxy-7-(4-amino-3,3-dimethylpiperidin-1-yl)-1,4-dihydro-4-oxo-quinoline-3-carboxylic acid hydrochloride], for which, in data set [1], the “polymorph change on storage (Powder X-ray Diffraction spectrum and aqueous solubility change)” value is on record as “changed to polymorph A-3”.

For the compound `COc1c(N2CC[C@H](N)C(C)(C)C2)c(F)cc2c(=O)c(C(=O)O)cn(C3CC3)c12.Cl` [(−) A-2, S-(−)-1-cyclopropyl-6-fluoro-8-methoxy-7-(4-amino-3,3-dimethylpiperidin-1-yl)-1,4-dihydro-4-oxo-quinoline-3-carboxylic acid hydrochloride], in data set [1], the “polymorph change on storage (Powder X-ray Diffraction spectrum and aqueous solubility change)” value is reported as “changed to polymorph A-3”; the “thermodynamic stability of polymorph” value is recorded as “thermodynamically stable”.

Consider `COc1c(N2CC[C@H](N)C(C)(C)C2)c(F)cc2c(=O)c(C(=O)O)cn(C3CC3)c12.Cl` [(−) A-3, S-(−)-1-cyclopropyl-6-fluoro-8-methoxy-7-(4-amino-3,3-dimethylpiperidin-1-yl)-1,4-dihydro-4-oxo-quinoline-3-carboxylic acid hydrochloride], for which the “thermodynamic stability of polymorph” value in data set [1] is given as “thermodynamically stable”.

As for `COc1c(N2CC[C@H](N)C(C)(C)C2)c(F)cc2c(=O)c(C(=O)O)cn(C3CC3)c12.Cl` [(−) A-4, S-(−)-1-cyclopropyl-6-fluoro-8-methoxy-7-(4-amino-3,3-dimethylpiperidin-1-yl)-1,4-dihydro-4-oxo-quinoline-3-carboxylic acid hydrochloride], the “polymorph change on storage (Powder X-ray Diffraction spectrum and aqueous solubility change)” value in data set [1] is listed as “changed to polymorph A-3”.
